Assay results: ChEMBL document CHEMBL1201862, “PubChem BioAssay data set” (2004)
Calls of active or inactive are those of the source.

Assays:
[1] = Luminescence Cell-Based Dose Retest to Confirm Inhibitors of Cancer Stem Cells. [Related pubchem assays (depositor defined):AID2717, AID2721]; assay type: functional; details: Homo sapiens
[2] = target: T1, Type-1 angiotensin II receptor (Homo sapiens, UniProt P30556); assay: antagonism of angiotensin II type 1 receptor – cell-based, uHTS hits, selectivity assay for APJ receptor antagonist project, dose response (AID 463214); assay type: functional;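 also: antagonist potency against angiotensin II stimulated AT1 response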
T1 sequence (P30556 whole entry): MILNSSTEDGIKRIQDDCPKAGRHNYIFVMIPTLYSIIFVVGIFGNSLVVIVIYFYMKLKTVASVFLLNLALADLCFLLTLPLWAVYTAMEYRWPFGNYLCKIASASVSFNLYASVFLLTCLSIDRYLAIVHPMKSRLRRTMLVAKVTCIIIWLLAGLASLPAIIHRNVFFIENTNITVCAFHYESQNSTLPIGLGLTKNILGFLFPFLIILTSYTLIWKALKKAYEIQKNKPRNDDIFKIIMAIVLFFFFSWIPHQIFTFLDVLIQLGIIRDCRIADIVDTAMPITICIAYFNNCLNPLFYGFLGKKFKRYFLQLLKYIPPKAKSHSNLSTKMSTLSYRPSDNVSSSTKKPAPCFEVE

Beta-galactosidase = Beta-galactosidase (Escherichia coli, UniProt Q8VNN2); assay: PubChem AID 485352; assay type: functional
Beta-galactosidase, sequence (Q8VNN2 whole entry): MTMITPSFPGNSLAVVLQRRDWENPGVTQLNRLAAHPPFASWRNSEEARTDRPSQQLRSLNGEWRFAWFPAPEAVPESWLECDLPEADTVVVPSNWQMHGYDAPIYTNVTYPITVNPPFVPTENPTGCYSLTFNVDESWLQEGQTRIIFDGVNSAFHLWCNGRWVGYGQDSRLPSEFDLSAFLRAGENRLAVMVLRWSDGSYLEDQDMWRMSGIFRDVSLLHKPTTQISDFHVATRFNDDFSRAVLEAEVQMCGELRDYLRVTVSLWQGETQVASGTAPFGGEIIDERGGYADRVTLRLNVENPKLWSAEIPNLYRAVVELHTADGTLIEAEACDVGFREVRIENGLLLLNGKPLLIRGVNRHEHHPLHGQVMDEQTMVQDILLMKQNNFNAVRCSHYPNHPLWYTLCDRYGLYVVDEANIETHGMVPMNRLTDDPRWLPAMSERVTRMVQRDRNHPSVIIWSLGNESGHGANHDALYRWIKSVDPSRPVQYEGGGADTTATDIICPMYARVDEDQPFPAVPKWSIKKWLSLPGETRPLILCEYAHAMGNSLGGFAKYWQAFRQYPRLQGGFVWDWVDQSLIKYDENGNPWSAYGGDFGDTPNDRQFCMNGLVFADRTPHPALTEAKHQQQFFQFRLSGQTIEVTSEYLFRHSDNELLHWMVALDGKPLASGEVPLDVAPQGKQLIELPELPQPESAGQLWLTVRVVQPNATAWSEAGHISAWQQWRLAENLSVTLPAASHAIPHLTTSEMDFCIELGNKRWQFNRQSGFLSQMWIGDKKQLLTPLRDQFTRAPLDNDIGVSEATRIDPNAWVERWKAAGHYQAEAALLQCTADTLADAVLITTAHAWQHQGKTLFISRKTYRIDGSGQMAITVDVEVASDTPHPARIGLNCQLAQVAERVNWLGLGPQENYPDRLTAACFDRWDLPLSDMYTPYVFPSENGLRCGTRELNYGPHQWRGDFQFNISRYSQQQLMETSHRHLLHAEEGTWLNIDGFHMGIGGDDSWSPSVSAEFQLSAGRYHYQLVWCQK

[3] = target: T2, Alkaline phosphatase, tissue-nonspecific isozyme (Homo sapiens, UniProt P05186); assay: potency against alkaline phosphatase TNAP – biochemical, luminescent, dose response, SAR follow-up (AID 1056)
T2 sequence (P05186 whole entry): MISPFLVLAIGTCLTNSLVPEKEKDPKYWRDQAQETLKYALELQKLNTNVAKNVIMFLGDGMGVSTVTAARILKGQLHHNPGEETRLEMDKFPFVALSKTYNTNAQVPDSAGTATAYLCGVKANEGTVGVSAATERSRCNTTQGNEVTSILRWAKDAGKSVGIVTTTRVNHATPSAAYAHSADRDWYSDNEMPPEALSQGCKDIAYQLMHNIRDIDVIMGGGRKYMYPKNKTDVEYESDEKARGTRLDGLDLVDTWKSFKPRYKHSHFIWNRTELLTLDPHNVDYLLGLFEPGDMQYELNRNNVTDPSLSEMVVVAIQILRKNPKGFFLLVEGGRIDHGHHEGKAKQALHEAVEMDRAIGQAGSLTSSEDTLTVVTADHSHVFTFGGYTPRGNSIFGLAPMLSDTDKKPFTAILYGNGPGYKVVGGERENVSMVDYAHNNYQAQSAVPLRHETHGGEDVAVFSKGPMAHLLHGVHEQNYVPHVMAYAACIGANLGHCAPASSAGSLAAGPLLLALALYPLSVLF

[4] = target: Glyceraldehyde-3-phosphate dehydrogenase (Homo sapiens, UniProt P04406)
Glyceraldehyde-3-phosphate dehydrogenase, sequence (P04406 whole entry): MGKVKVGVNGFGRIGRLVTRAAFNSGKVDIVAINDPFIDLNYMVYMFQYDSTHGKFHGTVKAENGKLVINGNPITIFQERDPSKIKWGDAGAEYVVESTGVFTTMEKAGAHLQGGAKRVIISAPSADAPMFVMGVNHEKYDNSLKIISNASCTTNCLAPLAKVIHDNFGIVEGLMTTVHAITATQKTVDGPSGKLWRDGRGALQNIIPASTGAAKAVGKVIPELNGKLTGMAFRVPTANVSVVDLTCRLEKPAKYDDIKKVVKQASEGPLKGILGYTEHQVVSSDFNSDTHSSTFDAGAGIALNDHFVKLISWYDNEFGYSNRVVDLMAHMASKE

[5] = target: Alkaline phosphatase, placental type (Homo sapiens, UniProt P05187); assay: human placental alkaline phosphatase inhibition – biochemical, luminescence, confirmation (AID 1512); assay type: functional
Alkaline phosphatase, placental type, sequence (P05187 whole entry): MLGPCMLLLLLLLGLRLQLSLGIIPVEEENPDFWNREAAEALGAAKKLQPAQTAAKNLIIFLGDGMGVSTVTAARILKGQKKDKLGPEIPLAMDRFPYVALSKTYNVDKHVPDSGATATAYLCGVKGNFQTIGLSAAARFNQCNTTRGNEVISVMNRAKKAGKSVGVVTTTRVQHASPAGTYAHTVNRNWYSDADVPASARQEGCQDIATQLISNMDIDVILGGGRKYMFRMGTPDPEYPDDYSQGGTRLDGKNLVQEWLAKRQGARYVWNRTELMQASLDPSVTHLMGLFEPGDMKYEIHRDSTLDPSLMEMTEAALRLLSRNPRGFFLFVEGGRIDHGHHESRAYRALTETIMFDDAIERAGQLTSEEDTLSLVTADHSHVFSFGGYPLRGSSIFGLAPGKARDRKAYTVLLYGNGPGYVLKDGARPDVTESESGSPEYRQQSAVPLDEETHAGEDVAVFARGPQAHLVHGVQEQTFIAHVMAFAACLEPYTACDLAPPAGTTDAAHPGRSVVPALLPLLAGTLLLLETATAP

[6] = target: Peroxisome proliferator-activated receptor gamma/Nuclear receptor coactivator 3 (Homo sapiens, UniProt P37231); assay: (§1) TR-FRET dose response biochemical High Throughput Screening assay for agonists of the steroid receptor coactivator 3 (SRC-3) recruitment by the peroxisome proliferator-activated receptor gamma (PPAR gamma): non-selective agonists. [Related pubchem assays: 1301 (Confirmation screen.), 1048 (Primary screen.)]; assay type: functional
[7] = target: Peroxisome proliferator-activated receptor gamma/Nuclear receptor coactivator 1 (Homo sapiens, UniProt P37231); assay: as §1, with “1 (SRC-1)” for “3 (SRC-3)”, “assays (depositor defined):AID1300, AID1808, AID504735, AID631]” for “assays: 1301 (Confirmation screen.), 1048 (Primary screen.)]”; assay type: protein assay
[8] = target: Peroxisome proliferator-activated receptor gamma/Nuclear receptor coactivator 2 (Homo sapiens, UniProt P37231); assay: TR-FRET dose response biochemical High Throughput Screening assay for agonists of the steroid receptor coactivator 2 (SRC-2) recruitment by the peroxisome proliferator-activated receptor gamma (PPAR gamma): non-selective agonists. [Related pubchem assays: 1297, 1032 ]; assay type: functional
Peroxisome proliferator-activated receptor gamma/Nuclear receptor coactivator 2, sequence (P37231 whole entry): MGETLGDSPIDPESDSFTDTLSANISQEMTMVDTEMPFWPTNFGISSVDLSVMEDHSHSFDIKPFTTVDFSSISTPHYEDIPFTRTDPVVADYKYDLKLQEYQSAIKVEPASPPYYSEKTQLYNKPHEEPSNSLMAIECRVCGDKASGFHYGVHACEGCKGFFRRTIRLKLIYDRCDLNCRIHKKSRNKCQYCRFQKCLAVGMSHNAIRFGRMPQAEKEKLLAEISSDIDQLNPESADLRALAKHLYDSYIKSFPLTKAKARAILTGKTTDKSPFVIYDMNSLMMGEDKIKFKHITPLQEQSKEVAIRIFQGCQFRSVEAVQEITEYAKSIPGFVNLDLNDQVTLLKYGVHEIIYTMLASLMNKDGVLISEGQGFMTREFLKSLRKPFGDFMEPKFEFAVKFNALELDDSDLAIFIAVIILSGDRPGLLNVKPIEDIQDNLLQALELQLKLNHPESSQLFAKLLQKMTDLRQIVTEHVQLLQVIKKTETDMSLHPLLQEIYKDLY
Peroxisome proliferator-activated receptor gamma/Nuclear receptor coactivator 2, sequence (Q15596 whole entry, further chain): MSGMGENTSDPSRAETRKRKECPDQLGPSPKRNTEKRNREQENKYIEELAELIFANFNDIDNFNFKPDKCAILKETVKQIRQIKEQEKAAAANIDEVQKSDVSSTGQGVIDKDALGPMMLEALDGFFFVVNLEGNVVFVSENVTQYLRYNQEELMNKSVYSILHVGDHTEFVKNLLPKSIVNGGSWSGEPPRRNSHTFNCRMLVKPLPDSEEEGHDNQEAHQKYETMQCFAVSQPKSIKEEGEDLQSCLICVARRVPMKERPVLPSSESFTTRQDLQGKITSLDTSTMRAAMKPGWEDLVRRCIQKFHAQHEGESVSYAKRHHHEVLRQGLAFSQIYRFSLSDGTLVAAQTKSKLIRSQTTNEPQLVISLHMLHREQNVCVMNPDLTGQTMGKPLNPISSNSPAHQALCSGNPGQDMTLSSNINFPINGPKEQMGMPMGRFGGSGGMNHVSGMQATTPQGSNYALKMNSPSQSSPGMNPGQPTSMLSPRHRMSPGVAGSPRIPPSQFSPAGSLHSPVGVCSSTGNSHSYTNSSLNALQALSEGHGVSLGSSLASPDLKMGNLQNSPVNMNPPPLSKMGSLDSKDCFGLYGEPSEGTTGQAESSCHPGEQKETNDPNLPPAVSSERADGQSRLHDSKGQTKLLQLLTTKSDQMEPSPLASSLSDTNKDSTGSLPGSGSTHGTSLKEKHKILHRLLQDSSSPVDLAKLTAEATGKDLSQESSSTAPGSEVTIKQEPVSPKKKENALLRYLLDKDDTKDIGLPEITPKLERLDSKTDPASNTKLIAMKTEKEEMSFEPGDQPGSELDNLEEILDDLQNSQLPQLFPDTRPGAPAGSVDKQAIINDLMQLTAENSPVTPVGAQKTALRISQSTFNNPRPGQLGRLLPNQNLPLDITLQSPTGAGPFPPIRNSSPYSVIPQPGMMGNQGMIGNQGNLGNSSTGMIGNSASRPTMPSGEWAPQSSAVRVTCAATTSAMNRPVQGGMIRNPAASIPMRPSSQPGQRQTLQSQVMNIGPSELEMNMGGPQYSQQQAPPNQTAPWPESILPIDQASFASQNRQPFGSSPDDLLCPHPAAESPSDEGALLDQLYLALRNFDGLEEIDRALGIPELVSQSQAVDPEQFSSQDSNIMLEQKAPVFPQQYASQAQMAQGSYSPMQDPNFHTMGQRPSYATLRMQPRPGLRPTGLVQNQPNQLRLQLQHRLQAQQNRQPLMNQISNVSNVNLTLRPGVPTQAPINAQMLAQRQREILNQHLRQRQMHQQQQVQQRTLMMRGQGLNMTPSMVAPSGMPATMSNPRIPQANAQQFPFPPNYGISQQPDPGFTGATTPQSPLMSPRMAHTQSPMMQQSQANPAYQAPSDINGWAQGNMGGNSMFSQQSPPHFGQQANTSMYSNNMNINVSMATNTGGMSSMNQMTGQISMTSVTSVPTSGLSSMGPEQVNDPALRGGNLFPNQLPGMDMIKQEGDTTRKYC

INS1 = assay: INS-1E survival protection against cytokine death – cell-based, luminescence, retest, dose response (AID 449756); assay type: functional; details: Rattus norvegicus;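 also: cell death triggered by IL-1 beta plus TNF-alpha plus IFN-gamma mixture; protective hits raise ATP signal compared with cytokine alone wells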

Structure (SMILES)	IC50 [3]	IC50 [4]	EC50 [6]	EC50 [7]	EC50 [8]	further results
O=C(NNc1ccc(-c2csnn2)cc1)c1cc(Cl)cc(Cl)c1	–	–	–	–	–	AC50 [1]: 2.15 µM (active); IC50 [2]: 2.43 µM (active); EC50 (Beta-galactosidase): > 40 µM (inactive)
O=S(=O)(Nc1cccnc1)c1cc(Cl)ccc1Cl	> 100 µM (inactive)	> 100 µM (not active)	–	–	–	–
O=C1c2cccc(F)c2C(=O)N1c1nnc(Cc2ccccc2)[nH]1	0.353 µM (active)	> 100 µM (not active)	–	–	–	IC50 [5]: > 100 µM (inactive)
O=C(O)c1ccc2c(c1)C(=O)N(c1nc(-c3cccnc3)n[nH]1)C2=O	> 100 µM (inactive)	> 100 µM (not active)	–	–	–	–
CCOC(=O)c1sc2nc(C)nc(S)c2c1C	–	–	> 79.4 µM (not active)	162 µM (inactive)	37.3 µM (not active)	–
COc1ccc(CC(=O)OCC(=O)c2ccc(S(=O)(=O)N3CCCCC3)cc2)cc1	–	–	–	–	–	IC50 [2]: 20 µM (not active); EC50 (Beta-galactosidase): > 40 µM (inactive)
Nc1nc(COc2ccccc2)n(-c2ccccc2)n1	> 100 µM (inactive)	> 100 µM (not active)	–	–	–	IC50 [5]: > 100 µM (inactive)
COc1ccc2c(c1)C(=O)[C@H](O)[C@@H](c1ccc(OC)c(Br)c1)O2	–	–	–	–	–	AC50 (INS1): 3.71 µM (active); AC50 [1]: 7.62 µM (active); IC50 [2]: 12.1 µM (active); EC50 (Beta-galactosidase): > 40 µM (inactive)

Second part, led by results:

IC50 [3]	IC50 [4]	EC50 [6]	EC50 [7]	EC50 [8]	Structure (SMILES)	further results
13.3 µM (active)	> 100 µM (not active)	–	–	–	CC1(C)CC(=O)c2c(n[nH]c2-c2cccnc2)C1	IC50 [5]: > 100 µM (inactive)
–	–	> 79.4 µM (not active)	9.85 µM (active)	14.4 µM (not active)	O=C(CSc1ncnc2c1oc1ccccc12)NC1CCCCC1	–
–	–	> 79.4 µM (not active)	22.9 µM (inactive)	22.2 µM (not active)	COc1ccc(CNC(=O)CSc2nc(-c3ccccc3)cc(-c3cccs3)c2C#N)cc1	–
–	–	> 79.4 µM (not active)	70.8 µM (inactive)	40.1 µM (not active)	Cc1ccc(-n2c(S)nnc2-c2cccc(C)c2)cc1	–
–	–	> 79.4 µM (not active)	> 79.4 µM (inactive)	89.2 µM (not active)	O=C1CC(Sc2nnc(-c3ccccc3)o2)C(=O)N1c1ccccc1 (centres undefined)	–
3.71 µM (active)	–	–	–	–	O=C(CSc1nnc(-c2ccccc2)[nH]1)c1ccc(O)cc1O	IC50 [5]: > 100 µM (inactive)
